{"source": "patent US7488712B2", "about": "“Histone deacetylase inhibitors and methods for producing the same” (Kyushu Institute of Technology, priority 2002, dated 2009)", "key": {"[1]": {"system": "human uterine cancer cells (HeLa)", "assay": "in vitro", "method": "(§1) Human normal lung cells (TIG-3) and human uterine cancer cells (HeLa) were used to test SCOP cytotoxicity. These TIG-3 and HeLa cells were cultured in a DMEM medium comprising 10% FBS at 37° C. in the presence of 5% carbon dioxide in a steam-saturated incubator. The TIG-3 and HeLa cells were plated in 100 μl/well of the above-described medium on a 96-well microtiter plate, at a density of 30,000 cells/well and 10,000 cells/well respectively. This was then cultured for 18 hours. Test compound solution diluted with medium was added to each well and culture was continued for another 48 hours.\n(§2) 30 μl of supernatant from each well was transferred to another 96-well microtiter plate (A), and the remaining supernatant was discarded. 100 μl of 0.5% Triton-X/PBS was added to each well to lyse the cells, and 30 μl was then transferred to each respective well of another 96-well microtiter plate (B). 30 μl of LDH-Cytotoxic Test (Wako) substrate solution was added to each well of these 96-well microtiter plates A and B, causing a color reaction. Once the color reaction was sufficiently progressed, it was stopped by adding 60 μl of a quenching solution. Color intensity was measured at OD560 nm using a microplate reader (Softmax). [A/(A+B)] was calculated as the free-LDH ratio. […] The higher the activity value for cancer-cell-selective cell damage (LD50 for normal cells/LD50 for cancer cells), the more that cancer-cell-selective apoptosis was induced."}, "[2]": {"system": "Human normal lung cells (TIG-3)", "assay": "Cytotoxicity test (free-LDH ratio), TIG-3", "type": "cell-based", "conditions": "48 hours; free-LDH ratio 50%; without DTT", "method": "This was then cultured for 18 hours."}, "[3]": {"system": "human wild-type p21 promoter", "assay": "p21 promoter-inducing activity (luciferase) in MFLL-9 cells", "type": "cell-based"}, "[4]": {"target": "T1, human HDAC4 (Homo sapiens, UniProt P56524)", "T1 construct": "FLAG; made in house; host or cells: 293T cells (transient transfection, anti-FLAG immunoprecipitation, FLAG peptide elution)", "T1 sequence (O15379 whole entry partner)": "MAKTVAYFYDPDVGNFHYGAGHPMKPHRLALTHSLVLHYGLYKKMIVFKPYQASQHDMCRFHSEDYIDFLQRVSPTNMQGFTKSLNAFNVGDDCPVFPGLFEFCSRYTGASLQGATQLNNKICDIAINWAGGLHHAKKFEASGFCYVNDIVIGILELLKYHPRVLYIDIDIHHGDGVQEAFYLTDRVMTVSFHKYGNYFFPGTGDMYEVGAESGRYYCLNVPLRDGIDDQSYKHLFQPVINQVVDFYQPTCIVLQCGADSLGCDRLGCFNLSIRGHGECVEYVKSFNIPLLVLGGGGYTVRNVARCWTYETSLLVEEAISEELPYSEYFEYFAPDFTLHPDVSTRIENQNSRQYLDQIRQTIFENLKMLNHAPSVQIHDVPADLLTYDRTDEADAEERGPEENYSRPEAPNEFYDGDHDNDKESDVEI", "T1 sequence (P56524 whole entry)": "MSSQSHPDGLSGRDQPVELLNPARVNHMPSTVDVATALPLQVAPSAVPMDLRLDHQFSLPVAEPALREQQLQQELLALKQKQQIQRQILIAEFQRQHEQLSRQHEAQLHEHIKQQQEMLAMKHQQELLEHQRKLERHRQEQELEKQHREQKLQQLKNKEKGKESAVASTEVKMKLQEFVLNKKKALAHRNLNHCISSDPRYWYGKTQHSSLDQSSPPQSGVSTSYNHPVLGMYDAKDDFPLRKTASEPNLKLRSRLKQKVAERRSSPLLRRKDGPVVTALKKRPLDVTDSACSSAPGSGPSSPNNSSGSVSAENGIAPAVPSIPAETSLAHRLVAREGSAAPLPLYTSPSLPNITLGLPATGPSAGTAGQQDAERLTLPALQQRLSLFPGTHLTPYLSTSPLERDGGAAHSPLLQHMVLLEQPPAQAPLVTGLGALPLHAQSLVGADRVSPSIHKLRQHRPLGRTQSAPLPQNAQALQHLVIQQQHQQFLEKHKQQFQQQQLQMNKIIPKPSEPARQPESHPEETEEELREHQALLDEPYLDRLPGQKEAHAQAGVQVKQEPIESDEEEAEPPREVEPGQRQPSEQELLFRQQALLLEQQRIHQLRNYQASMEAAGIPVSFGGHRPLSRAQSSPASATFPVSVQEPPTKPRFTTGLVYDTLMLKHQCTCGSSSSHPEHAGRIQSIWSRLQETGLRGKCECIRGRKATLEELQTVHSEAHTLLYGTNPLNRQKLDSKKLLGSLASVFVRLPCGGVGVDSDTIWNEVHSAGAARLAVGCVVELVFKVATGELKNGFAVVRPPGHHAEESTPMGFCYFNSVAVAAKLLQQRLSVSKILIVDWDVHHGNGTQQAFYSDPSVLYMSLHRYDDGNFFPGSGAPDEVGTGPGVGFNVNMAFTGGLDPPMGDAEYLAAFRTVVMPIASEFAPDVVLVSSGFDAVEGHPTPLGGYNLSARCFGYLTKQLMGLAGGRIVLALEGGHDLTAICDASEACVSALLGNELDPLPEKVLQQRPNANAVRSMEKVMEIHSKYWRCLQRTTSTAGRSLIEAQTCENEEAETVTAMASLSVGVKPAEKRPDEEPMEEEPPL", "assay": "In vitro HDAC inhibition activity, [3H]-acetylated histone substrate, HDAC4", "type": "biochemical", "conditions": "Table 2; homodimer", "method": "(§3) To measure HDAC inhibition activity, an HDAC solution was prepared as described below. 1×10^7 of 293T cells were plated on to a 100-mm dish and, after 24 hours, transfected with vectors (1 μg) expressing human HDAC1 and HDAC4 or mouse HDAC6, using LipofectAmine 2000 reagent (Life Technologies, Inc. Gaithersburg, Md.). […] The vectors were introduced for five hours in OPTI-MEM. The medium was then replaced with Dulbecco's modified Eagle's medium (DMEM), and incubated for 19 hours. The cells were washed with PBS, suspended in lysis buffer (50 mM Tris-HCl (pH7.5), 120 mM NaCl, 5 mM EDTA, and 0.5% Nonidet P-40), and sonicated. The supernatant was collected by centrifugation and nonspecific protein was removed using Protein A/G plus agarose beads (Santa Cruz Biotechnologies, Inc.). Anti-FLAG M2 antibodies (Sigma-Aldrich, Inc.) were added to the supernatant of cells expressing HDAC1 or HDAC4. Anti-HA antibodies (clone 3F10, Roche Molecular Biochemicals) were added to the supernatant of cells expressing HDAC6. Reaction in the respective mixtures was carried out at 4° C. for one hour. The resulting reaction mixtures were independently mixed with agarose beads and further reacted at 4° C. for one hour. The agarose beads were washed three times with lysis buffer and then washed once with HD buffer (20 mM Tris-HCl (pH8.0), 150 mM NaCl, 10% glycerol, and a complete protease inhibitor cocktail (Boehringer Mannheim, Germany)). […] The HDAC reaction solution was used for determining HDAC inhibition activity as shown below.\n(§4) In vitro HDAC inhibition activity was evaluated as follows: A test compound was dissolved in DMSO and adjusted to 10 mM. This was used as an inhibitor stock solution. […] These reactions were stopped by adding 10 μl HCl. The [^3H] acetic acid excised by the enzyme reaction was extracted with ethyl acetate and subjected to radioactive dose measurement. As a negative control, the same procedure was carried out in which no inhibitor was added to the reaction system. The inhibition activity was expressed as a 50% inhibition concentration (“IC50 (nM)”) of the HDAC activity in the negative control (Tables 1 to 4)."}, "[5]": {"assay": "in vitro", "conditions": "human, Cancer-Cell-Selective Cytotoxicity", "method": "as §1, §2"}, "[6]": {"target": "T2, mouse HDAC6 (Mus musculus, UniProt Q9Z2V5)", "T2 construct": "HA; made in house; host or cells: 293T cells (transient transfection, anti-HA immunoprecipitation, HA peptide elution)", "T2 sequence (Q9Z2V5 1-1149)": "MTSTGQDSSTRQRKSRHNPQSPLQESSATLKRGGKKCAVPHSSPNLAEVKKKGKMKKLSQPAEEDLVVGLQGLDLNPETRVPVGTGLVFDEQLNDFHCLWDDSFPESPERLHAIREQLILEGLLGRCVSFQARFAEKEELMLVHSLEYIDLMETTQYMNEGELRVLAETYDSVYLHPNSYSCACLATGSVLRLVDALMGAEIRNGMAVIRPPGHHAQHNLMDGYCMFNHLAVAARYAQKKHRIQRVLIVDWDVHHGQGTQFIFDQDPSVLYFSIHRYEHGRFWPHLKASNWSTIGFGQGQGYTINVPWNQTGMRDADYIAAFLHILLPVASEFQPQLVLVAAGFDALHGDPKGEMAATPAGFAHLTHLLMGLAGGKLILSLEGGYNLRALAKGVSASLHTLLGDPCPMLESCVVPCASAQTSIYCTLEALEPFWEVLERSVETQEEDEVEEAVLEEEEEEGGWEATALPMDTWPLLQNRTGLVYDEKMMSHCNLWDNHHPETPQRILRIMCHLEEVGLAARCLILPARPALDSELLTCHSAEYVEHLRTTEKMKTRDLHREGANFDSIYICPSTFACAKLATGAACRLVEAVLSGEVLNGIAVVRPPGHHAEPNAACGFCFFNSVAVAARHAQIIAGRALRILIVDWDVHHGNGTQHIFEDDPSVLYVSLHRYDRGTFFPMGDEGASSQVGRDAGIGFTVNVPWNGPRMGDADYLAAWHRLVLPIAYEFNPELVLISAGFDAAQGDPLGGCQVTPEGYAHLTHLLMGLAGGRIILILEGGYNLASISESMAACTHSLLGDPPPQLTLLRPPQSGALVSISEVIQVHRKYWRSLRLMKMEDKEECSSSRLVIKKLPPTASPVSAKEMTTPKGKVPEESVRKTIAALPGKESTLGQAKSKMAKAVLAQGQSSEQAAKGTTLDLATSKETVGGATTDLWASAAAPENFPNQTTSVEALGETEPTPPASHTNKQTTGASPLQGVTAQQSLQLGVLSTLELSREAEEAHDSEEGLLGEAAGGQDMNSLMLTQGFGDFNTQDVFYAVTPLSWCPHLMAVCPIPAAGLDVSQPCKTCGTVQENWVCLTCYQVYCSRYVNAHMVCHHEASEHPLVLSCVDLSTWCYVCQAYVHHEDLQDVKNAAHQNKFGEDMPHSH", "assay": "In vitro HDAC inhibition activity, [3H]-acetylated histone substrate, HDAC6", "type": "biochemical", "conditions": "Table 2; homodimer", "method": "as §3, §4"}, "[7]": {"target": "T3, human HDAC1 (Homo sapiens, UniProt Q13547)", "T3 construct": "FLAG; made in house; host or cells: 293T cells (transient transfection, anti-FLAG immunoprecipitation, FLAG peptide elution)", "T3 sequence (Q13547 whole entry)": "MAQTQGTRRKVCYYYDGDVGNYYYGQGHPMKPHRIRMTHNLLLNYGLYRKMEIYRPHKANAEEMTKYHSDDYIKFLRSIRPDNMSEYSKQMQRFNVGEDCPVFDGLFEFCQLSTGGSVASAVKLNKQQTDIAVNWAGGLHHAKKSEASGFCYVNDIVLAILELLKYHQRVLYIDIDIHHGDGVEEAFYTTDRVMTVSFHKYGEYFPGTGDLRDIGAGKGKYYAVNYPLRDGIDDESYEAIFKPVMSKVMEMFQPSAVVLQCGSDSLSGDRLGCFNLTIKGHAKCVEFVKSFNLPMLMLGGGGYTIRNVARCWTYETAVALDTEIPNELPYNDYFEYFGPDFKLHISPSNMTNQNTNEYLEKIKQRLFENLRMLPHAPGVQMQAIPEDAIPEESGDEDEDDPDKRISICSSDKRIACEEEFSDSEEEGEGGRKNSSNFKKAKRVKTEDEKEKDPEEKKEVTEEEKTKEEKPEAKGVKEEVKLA", "assay": "In vitro HDAC inhibition activity, [3H]-acetylated histone substrate, HDAC1", "type": "biochemical", "conditions": "Table 2; homodimer", "method": "as §3, §4"}, "[8]": {"assay": "Stability in serum (FCS), read out by p21 promoter inducing activity", "type": "in vitro ADME", "method": "The stability of SCOP 152, SCOP 304, and SCOP 402 in serum was evaluated by the method shown below: 1 μl of 10 mM SCOP 152, SCOP 304, and SCOP 402 was added to 99 μl FCS, and incubated at 37° C. Each hour, NaCl in a sufficient amount for saturation and 1 ml of ethyl acetate were added to each mixture. After extraction, from 800 μl of the ethyl acetate phase, the ethyl acetate was distilled off, and then 100 μl of DMSO was added to the residue. The resulting solution was further diluted ten times with DMSO and used to measure p21 promoter inducing activity. Activity at incubation time zero was taken as 100%, and activities were compared (FIG. 7)."}}, "note": "*1 amine or outer side, *2 acyl side, *3 side chain or, on linkers, in order; H or OH if unused. Where a SMILES comes first, the peptide text is derived from it. Bridges are numbered along the chain shown (N, C = ends). Roman numbers before positions name the chains, in order. [ ]: non-standard residue; d: D form. hNle(7-SH) = O=C([C@H](CCCCCS[*:3])N[*:1])[*:2]"}
{"compound": "CC(/C=C/C(=O)NO)=C\\[C@@H](C)C(=O)c1ccc(N(C)C)cc1", "note": "[TSA, Tricostatin A, reference compound]", "values": [{"measurement": "LD50 (nM) HeLa", "setting": "[1]; 48 hours, free-LDH ratio 50%, without DTT", "value": 41.4, "unit": "nM"}, {"measurement": "LD50 (nM) TIG-3", "setting": "[2]", "value": 1580, "unit": "nM"}, {"measurement": "EC50", "setting": "[3]; Table 4, positive control", "value": 445, "unit": "nM"}]}
{"compound": "CC[C@H](C)[C@@H]1NC(=O)[C@@H](Cc2ccc(OC)cc2)NC(=O)[C@H](CCCCCSSCCCCC[C@@H]2NC(=O)[C@H]3CCCN3C(=O)[C@H]([C@@H](C)CC)NC(=O)[C@@H](Cc3ccc(OC)cc3)NC2=O)NC(=O)[C@H]2CCCN2C1=O", "note": "[SCOP 304, cyclo(-L-Am7(-)-D-Tyr(Me)-L-Ile-D-Pro-)] (I: cyclo([hNle(7-SH)][dY](Me)I[dP]) / II: cyclo([hNle(7-SH)][dY](Me)I[dP]); disulfide I:1-II:1)", "values": [{"measurement": "IC50", "setting": "[4]", "value": 145, "unit": "nM"}, {"measurement": "selectivity ratio at 48 h", "setting": "[5]", "value": 25.2}, {"measurement": "Cancer-Cell-Selective Cytotoxicity", "setting": "[1]; human, 48 h", "value": 23.0}, {"measurement": "IC50", "setting": "[6]", "value": "> 500000", "unit": "nM"}, {"measurement": "EC50", "setting": "[3]; Table 2, homodimer", "value": 341, "unit": "nM"}, {"measurement": "IC50", "setting": "[7]", "value": 142, "unit": "nM"}, {"measurement": "Retention of activity in serum", "setting": "[8]", "value": "stably retain activity in serum for longer than SCOP 152"}]}
